US20260000698A1 (priority 2022, published 2026)
Read-outs that look alike come from different tables or passages of the source. Marks after values point to notes of the source that are not given here.

Assays:
[1] = tested on: A549/ACE2/TMPRSS2 cells; assay: in vitro; conditions: A549/ACE2/TMPRSS2 cells
Procedure: (§1) Percentage of infected cells was determined by dividing the number of infected cells by the total number of cells per well. The percentage of infected cells and total number of cells for each treatment was plotted into GraphPad prism (GraphPad Software; San Diego, CA, USA) to perform a non-linear regression analysis, generate infectious dose-response curves and to calculate EC50 and CC50 values.
(§2) Viability assays for the non-infected A549/ACE2/TMPRSS2 cells were performed using the 3-(4,5-dimethylthiazol-2-yl)-5-(3-carboxymethoxyphenyl)-2-(4-sulfophenyl)-2H-tetrazolium (MTS)-based tetrazolium reduction CellTiter 96 Aqueous Non-Radioactive cell proliferation assay (Promega G5430; Madison, WI) as described. Assays were conducted using parallel plates to those used in the immunofluorescence assay. Experimental details (cell line, number of cells seeded and incubation time) corresponded to those used in the immunofluorescence assay above. The data obtained were used to calculate the CC50 value using GraphPad Prism software.

[2] = tested on: SARS-CoV-2 isolate USA-WA1/2020
[3] = tested on: SARS-CoV-2 isolate USA-WA1/2020; assay: microbe, parasite or virus in culture; conditions: for EC50: Severe acute respiratory syndrome coronavirus 2, A549-ACE2, 48 h; for inhibition at 10 µM: Severe acute respiratory syndrome coronavirus 2, A549-ACE2, read-out: % inhibition at 10 μM (EC50)
[4] = Solubility as observed in antiviral testing
[5] = target: SARS-CoV-2 Nsp14 MTase (Severe acute respiratory syndrome coronavirus 2, UniProt P0DTD1); assay: biochemical; format: biochemical
[6] = Plasma stability assay, human plasma; format: in vitro ADME
Procedure: (§3) Plasma stability assay. The plasma stability assay was performed in triplicate by incubating each selected compound (1 μmol/L final concentration) in normal mouse (CD-1) or human plasma (Innovative Research; Novi, MI, USA) diluted to 80% with 0.1 mol/L potassium phosphate buffer (pH 7.4) at 37° C. At 0, 1, 3, 6, and 24 h, a 50 μL aliquot of the plasma mixture was taken and quenched with 150 μL of acetonitrile containing 0.1% formic acid. The samples were then vortexed and centrifuged at 15,000 rpm (Eppendorf centrifuge 5424R; Enfield, CT, USA) for 5 min. The supernatants were collected and analyzed by LC-MS/MS to determine the in vitro plasma half-life (t1/2).

[7] = Plasma stability assay, mouse plasma; format: in vitro ADME, mouse (CD-1)
Procedure: as §3

[8] = Parallel artificial membrane permeability assay (PAMPA); format: in vitro ADME
Procedure: Parallel artificial membrane permeability assay (PAMPA).^5 The membrane permeability of selected compounds was evaluated using the Corning® BioCoat™ Pre-coated PAMPA Plate System (Corning 353015; Glendale, AZ, USA). The pre-coated plate assembly, which was stored at −20° C., was taken to thaw for 30 min at room temperature. The permeability assay was carried out in accordance with the manufacturer's protocol. Briefly, the 96-well filter plate, pre-coated with lipids, was used as the permeation acceptor and a matching 96 well receiver plate was used as the permeation donor. Compound solutions were prepared by diluting the 10 mmol/L DMSO stock solutions with 10% methanol in DPBS to a final concentration of […]. The compound solutions were added to the wells (300 μL/well) of the receiver plate and DPBS with 10% methanol was added to the wells (200 μL/well) of the pre-coated filter plate. The filter plate was then coupled with the receiver plate and the plate assembly was incubated at 25° C. without agitation for 5 h. At the end of the incubation, the plate was separated and the final concentrations of compounds in both donor wells and acceptor wells were analyzed using LC-MS/MS. Permeability of a compound was calculated using the Eq. (1):
where A=filter area (0.3 cm^2), VD=donor well volume (0.3 mL), VA=acceptor well volume (0.2 mL), t=incubation time (seconds), CA(t)=compound concentration in acceptor well at time t, CD(t)=compound concentration in donor well at time t, and Ceq was calculated using the Eq. (2): […]
A cutoff criterion of Pe value at […] was used to classify the compounds into high and low permeability according to the literature report of this PAMPA plate system^1.

[9] = not given; remark: listed apart in the source
[10] = Liver S9 stability assay, human liver S9; conditions: n = 2, mean±SD
[11] = Liver S9 stability assay, mouse liver S9; conditions: n = 2, mean±SD; for Mouse Liver S9 Stability t1/2, Phase II: cofactor UDPGA
[12] = in vitro; conditions: human
Procedure: as §1, §2

[13] = LC-MS/MS detection of SAH, read-out: MTase IC50

| Compound | EC50 [3] | IC50 [5, 13] | CC50 [12] | inhibition at 10 µM [3] | also measured |
| --- | --- | --- | --- | --- | --- |
| CC(C)C(=O)O[C@@H]1[C@H](OC(=O)C(C)C)[C@@H](CNS(=O)(=O)c2ccc3ccccc3c2)O[C@H]1n1cnc2c(N)ncnc21 [Compound 7, (2R,3R,4R,5R)-2-(6-Amino-9H-purin-9-yl)-5-((naphthalene-2-sulfonamido)methyl)tetrahydrofuran-3,4-diyl bis(2-methylpropanoate)] | ~97 µM | – | – | – | CC50 [1]: > 100 µM; antiviral activity ([2]; A549 AT cells): showed antiviral activity; solubility [4]: low solubility |
| Nc1ncnn2c([C@@H]3O[C@H](CNS(=O)(=O)c4ccc5ccccc5c4)[C@@H](O)[C@H]3O)ccc12 [Compound 10, N-(((2R,3S,4R,5S)-5-(4-Aminopyrrolo[2,1-f][1,2,4]triazin-7-yl)-3,4-dihydroxytetrahydrofuran-2-yl)methyl)naphthalene-2-sulfonamide] | 0.72 µM | 0.093 µM | – | – | MTase inhibitory activity [5]: comparable to that of 3; CC50 [1]: > 100 µM; Plasma Stability t1/2, Human ([6]; human plasma, 37° C., n = 3): >24^d h; stability in human plasma ([6]; human, plasma): similarly stable; Plasma Stability t1/2, Mouse ([7]; mouse plasma, 37° C., n = 3): >24^d h; stability in mouse plasma ([7]; mouse, plasma): similarly stable; passive diffusion rate in PAMPA ([8]; PAMPA): equally low; PAMPA Permeability Pe ([8]; n = 6, mean±SD, 25° C., 5 h): 0.2 ± 0.1 10^−6 cm/s; therapeutic index (TI=CC50/EC50) ([2]; CC50/EC50): greater than 139; stability in human liver S9 fractions: similarly stable; stability in mouse S9 phase I reactions [9]: surprisingly labile; Human Liver S9 Stability t1/2, Phase I ([10]; cofactor NADPH): 842 ± 210 min; Human Liver S9 Stability t1/2, Phase II ([10]; cofactor UDPGA): >45^e min; Mouse Liver S9 Stability t1/2, Phase I ([11]; cofactor NADPH): 28.9 ± 0.3 min; Mouse Liver S9 Stability t1/2, Phase II [11]: >45^e min |
| Nc1ncnn2c([C@@H]3O[C@H](CNS(=O)(=O)c4cccc5ccccc45)[C@@H](O)[C@H]3O)ccc12 [Compound 12, N-(((2R,3S,4R,5S)-5-(4-Aminopyrrolo[2,1-f][1,2,4]triazin-7-yl)-3,4-dihydroxytetrahydrofuran-2-yl)methyl)naphthalene-1-sulfonamide] | 3 µM | 7.3 µM | > 100 µM | – | – |
| Nc1ncnn2c([C@@H]3O[C@H](CNS(=O)(=O)c4cc5ccccc5s4)[C@@H](O)[C@H]3O)ccc12 [Compound 13, N-(((2R,3S,4R,5S)-5-(4-aminopyrrolo[2,1-f][1,2,4]triazin-7-yl)-3,4-dihydroxytetrahydrofuran-2-yl)methyl)benzo[b]thiophene-2-sulfonamide] | 1.6 µM | – | > 100 µM | – | IC50 [5]: 0.042 µM |
| Nc1ncnn2c([C@@H]3O[C@H](CNS(=O)(=O)c4csc5ccccc45)[C@@H](O)[C@H]3O)ccc12 [Compound 14, N-(((2R,3S,4R,5S)-5-(4-Aminopyrrolo[2,1-f][1,2,4]triazin-7-yl)-3,4-dihydroxytetrahydrofuran-2-yl)methyl)benzo[b]thiophene-3-sulfonamide] | 13 µM | 2 µM | > 100 µM | – | – |
| Nc1ncnn2c([C@@H]3O[C@H](CNS(=O)(=O)c4ccc5ccccc5c4)[C@@H](O)[C@H]3O)cc(I)c12 [Compound 49, N-(((2R,3S,4R,5S)-5-(4-Amino-5-iodopyrrolo[2,1-f][1,2,4]triazin-7-yl)-3,4-dihydroxytetrahydrofuran-2-yl)methyl)naphthalene-2-sulfonamide] | 11 µM | 0.046 µM | 28 µM | – | – |
| Nc1ncnc2c1ncn2[C@@H]1C[C@H](CNS(=O)(=O)c2ccc3ccccc3c2)[C@@H](O)[C@H]1O [Compound A1, N-(((1R,2R,3S,4R)-4-(6-Amino-9H-purin-9-yl)-2,3-dihydroxycyclopentyl)methyl)naphthalene-2-sulfonamide] | – | – | > 100 µM | 33% | IC50 [5]: 0.78 µM |
| CCN(C[C@H]1C[C@@H](n2cnc3c(N)ncnc32)[C@H](O)[C@@H]1O)S(=O)(=O)c1ccc2ccccc2c1 [Compound A2, N-(((1R,2R,3S,4R)-4-(6-Amino-9H-purin-9-yl)-2,3-dihydroxycyclopentyl)methyl)-N-ethylnaphthalene-2-sulfonamide] | – | 0.26 µM | > 100 µM | 29% | – |
| Nc1ncnc2c1ncn2[C@@H]1C[C@H](CNS(=O)(=O)c2ccc3ccccc3c2)[C@H](O)[C@@H]1O [Compound A3, N-(((1R,2S,3R,4R)-4-(6-Amino-9H-purin-9-yl)-2,3-dihydroxycyclopentyl)methyl)naphthalene-2-sulfonamide] | – | – | > 100 µM | 41% | IC50 [5]: 103 µM |
| CCN(C[C@H]1C[C@@H](n2cnc3c(N)ncnc32)[C@@H](O)[C@H]1O)S(=O)(=O)c1ccc2ccccc2c1 [Compound A4, N-(((1R,2S,3R,4R)-4-(6-Amino-9H-purin-9-yl)-2,3-dihydroxycyclopentyl)methyl)-N-ethylnaphthalene-2-sulfonamide] | – | 5.1 µM | > 100 µM | 34% | – |
| O=c1ccc2ccc(O)cc2o1 [Umbelliferone, reference compound] | – | – | – | – | Mouse Liver S9 Stability t1/2, Phase II [11]: 0.8 ± 0.005 min |
